# Laboratory results from patent US20050288307A1, “Anti-viral compounds” (priority 2002, published 2005).
# Where two headings read alike, the source gives them in different places.
# Key:
# [1] = target: CDK7/cyclin H (Homo sapiens, UniProt P50613); assay: CDK7 assay (CTD peptide substrate); format: biochemical
# Procedure: (§1) CTD peptide substrate (biotinyl-Ahx-(Tyr-Ser-Pro-Thr-Ser-Pro-Ser)4-NH2; 1-2 mg/mL) and recombinant human CDK7/cyclin H, CDK9/cyclin T1, or CDK9/cyclin K (0.5-2 μg) were incubated for 45 min at 30° C. in the presence of varying amounts of test compound in 20 mM MOPS pH 7.2, 25 mM β-glycerophosphate, 5 mM EGTA, 1 mM DTT, 1 mM sodium vanadate, 15 mM MgCl2, and 100 μM ATP (containing a trace amount of ^32PγATP) in a total volume of 25 μL in a 96-well microtiter plate. The reaction was stopped by placing the plate on ice for 2 min. Avidin (50 μg) was added to each well, and the plate was incubated at room temp for 30 min. The samples were transferred to a 96-well P81 filter plate, and washed (4×200 μL per well) with 75 mM phosphoric acid. Microscint 40 scintillation liquid (50 μL) was added to each well, and the amount of ^32P incorporation for each sample was measured using a Packard Topcount microplate scintillation counter.
# [2] = target: T1, CDK2/Cyclin E (Homo sapiens, UniProt P24941); assay: CDK2/cyclin E kinase assay (GST-Rb phosphorylation); format: biochemical;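 also: enzyme source: His-tagged CDK2/cyclin E complex co-expressed recombinantly in Sf9 insect cells using baculovirus constructs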
# T1 construct: His; made in house; host or cells: Sf9 insect cells (baculovirus)
# Procedure: (§2) His-tagged CDK2/Cyclin E and CDK1/Cyclin B may be co-expressed and PKCα singularly expressed in Sf 9 insect cells infected with the appropriate baculovirus constructs. The cells are harvested two days after infection by low speed centrifugation and the proteins purified from the insect cell pellets by Metal-chelate chromatography. Briefly, the insect cell pellet is lysed in Buffer A (10 mM Tris-HCl, pH 8.0, 150 mM NaCl, 0.02% NP40 and 5 mM β-marcaptoethanol, 1 mM NaF. 1 mM Na3VO4 and Protease Inhibitors Coctail (Sigma) containing AEBSF, pepstatin A, E 64, bestatin, leupeptin) by sonication. The soluble fraction is cleared by centrifugation and loaded onto Ni-NTA-Agarose (Quiagen). Non bound proteins were washed off with 300 mM NaCl, 5-15 mM Imidazole in Buffer A and the bound proteins eluted with 250 mM Imidazole in Buffer A. The purified proteins are extensively dialyzed against Storage buffer (20 mM HEPES pH 7.4, 50 mM NaCl, 2 mM DTT, 1 mM EDTA, 1 mM EGTA, 0.02% NP40, 10% v/v Glycerol) aliquoted and stored at −70° C.
# [3] = target: CDK4/Cyclin D1 (Homo sapiens, UniProt P11802); assay: CDK4/cyclin D1 kinase assay (GST-Rb phosphorylation); format: biochemical
# Sequence of CDK4/Cyclin D1 (P11802 whole entry, species assumed): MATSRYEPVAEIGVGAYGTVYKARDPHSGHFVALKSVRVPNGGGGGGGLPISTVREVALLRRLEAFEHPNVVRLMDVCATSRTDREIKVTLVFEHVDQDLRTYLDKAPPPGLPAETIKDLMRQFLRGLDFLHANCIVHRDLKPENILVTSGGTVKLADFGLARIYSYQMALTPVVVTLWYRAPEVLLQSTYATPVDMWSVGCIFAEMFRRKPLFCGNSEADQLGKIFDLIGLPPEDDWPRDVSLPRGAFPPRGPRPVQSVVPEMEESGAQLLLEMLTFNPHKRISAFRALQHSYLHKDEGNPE
# Sequence of CDK4/Cyclin D1 (P24385 whole entry partner, species assumed): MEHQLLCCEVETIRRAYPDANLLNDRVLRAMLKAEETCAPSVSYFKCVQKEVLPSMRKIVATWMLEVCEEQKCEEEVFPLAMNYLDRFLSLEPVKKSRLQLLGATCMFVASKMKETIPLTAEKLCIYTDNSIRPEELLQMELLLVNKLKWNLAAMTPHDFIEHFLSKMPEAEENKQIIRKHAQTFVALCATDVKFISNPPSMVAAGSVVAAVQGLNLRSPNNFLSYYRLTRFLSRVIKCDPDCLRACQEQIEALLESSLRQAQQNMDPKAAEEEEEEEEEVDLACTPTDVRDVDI
# [4] = target: CDK2/cyclin A (Homo sapiens, UniProt P24941); assay: CDK2/cyclin A kinase assay; format: biochemical;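 also: Read-out is incorporated radioactivity retained on P81 filter plates and quantified by scintillation counting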
# Procedure: Reactions were stopped on ice, followed by filtration through p81 filterplates (Whatman Polyfiltronics, Kent, UK). After washing 3 times with 75 mM orthophosphoric acid, plates were dried, scintillant added and incorporated radioactivity measured in a scintillation counter (TopCount, Packard Instruments, Pangboume, Berks, UK).
# [5] = target: CDK9/cyclin T1 (Homo sapiens, UniProt P50750); assay: CDK9 assay (CTD peptide substrate); format: biochemical
# Sequence of CDK9/cyclin T1 (P50750 whole entry): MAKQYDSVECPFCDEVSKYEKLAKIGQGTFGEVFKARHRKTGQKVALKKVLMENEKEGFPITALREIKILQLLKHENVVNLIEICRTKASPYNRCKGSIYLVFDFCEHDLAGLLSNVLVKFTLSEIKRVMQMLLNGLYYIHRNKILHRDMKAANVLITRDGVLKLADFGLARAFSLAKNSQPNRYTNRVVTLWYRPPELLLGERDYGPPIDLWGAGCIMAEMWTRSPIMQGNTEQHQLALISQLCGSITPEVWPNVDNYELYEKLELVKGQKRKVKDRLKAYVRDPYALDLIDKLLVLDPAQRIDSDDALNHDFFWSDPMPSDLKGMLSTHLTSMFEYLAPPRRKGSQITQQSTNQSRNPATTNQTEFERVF
# Sequence of CDK9/cyclin T1 (O60563 whole entry partner): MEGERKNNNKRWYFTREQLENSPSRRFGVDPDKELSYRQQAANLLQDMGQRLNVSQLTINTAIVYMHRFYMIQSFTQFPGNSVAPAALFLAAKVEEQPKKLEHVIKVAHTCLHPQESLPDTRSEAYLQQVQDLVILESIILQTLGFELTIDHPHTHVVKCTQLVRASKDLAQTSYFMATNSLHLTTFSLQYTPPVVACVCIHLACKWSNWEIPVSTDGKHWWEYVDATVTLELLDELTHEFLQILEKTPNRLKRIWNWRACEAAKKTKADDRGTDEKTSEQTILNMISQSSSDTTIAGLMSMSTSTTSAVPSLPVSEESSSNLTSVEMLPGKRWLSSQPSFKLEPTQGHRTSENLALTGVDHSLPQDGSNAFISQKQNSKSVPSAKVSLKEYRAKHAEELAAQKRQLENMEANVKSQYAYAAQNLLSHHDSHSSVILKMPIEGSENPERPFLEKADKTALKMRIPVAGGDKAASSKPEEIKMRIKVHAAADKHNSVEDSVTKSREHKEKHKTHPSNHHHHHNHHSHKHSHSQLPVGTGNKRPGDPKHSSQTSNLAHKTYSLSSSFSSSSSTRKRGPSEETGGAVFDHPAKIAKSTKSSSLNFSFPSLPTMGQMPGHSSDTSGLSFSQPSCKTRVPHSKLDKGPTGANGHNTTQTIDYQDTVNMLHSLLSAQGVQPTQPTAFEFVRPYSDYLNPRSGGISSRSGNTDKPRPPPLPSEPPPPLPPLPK
# Procedure: as §1
# [6] = target: CDK1/Cyclin B (Homo sapiens, UniProt P06493); assay: CDK1/cyclin B kinase assay (GST-Rb phosphorylation);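 also: Enzyme: His-tagged CDK1/Cyclin B co-expressed in baculovirus-infected Sf9 insect cells, purified via metal-chelate chromatography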
# Sequence of CDK1/Cyclin B (P06493 whole entry, species assumed): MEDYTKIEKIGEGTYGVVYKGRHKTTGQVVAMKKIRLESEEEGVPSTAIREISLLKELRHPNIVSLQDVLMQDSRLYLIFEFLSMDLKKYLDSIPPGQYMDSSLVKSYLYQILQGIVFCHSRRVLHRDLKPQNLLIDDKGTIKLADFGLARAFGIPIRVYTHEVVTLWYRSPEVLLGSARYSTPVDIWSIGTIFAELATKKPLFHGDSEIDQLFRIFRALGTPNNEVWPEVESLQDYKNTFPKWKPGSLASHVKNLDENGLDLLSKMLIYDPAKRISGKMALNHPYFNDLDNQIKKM
# Sequence of CDK1/Cyclin B (P14635 whole entry partner, species assumed): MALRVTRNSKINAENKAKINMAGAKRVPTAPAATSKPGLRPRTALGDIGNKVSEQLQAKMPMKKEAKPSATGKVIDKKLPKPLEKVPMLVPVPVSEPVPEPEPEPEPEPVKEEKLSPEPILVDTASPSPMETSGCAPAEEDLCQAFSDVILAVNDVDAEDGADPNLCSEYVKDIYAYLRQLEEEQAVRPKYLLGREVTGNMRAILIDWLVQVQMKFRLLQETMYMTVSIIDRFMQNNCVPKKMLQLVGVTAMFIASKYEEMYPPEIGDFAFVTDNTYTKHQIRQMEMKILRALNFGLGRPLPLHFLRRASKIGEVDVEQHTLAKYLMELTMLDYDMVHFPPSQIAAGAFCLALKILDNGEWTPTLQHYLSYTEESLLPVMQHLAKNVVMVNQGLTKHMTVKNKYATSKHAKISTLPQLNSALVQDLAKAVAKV
# Procedure: as §2
# [7] = tested on: HIV-1; assay: Anti-viral cell-based assays; details: result in words
# [8] = Compound cytotoxicity in PBMC assay plates (MTS cell viability); details: human, TC50 (concentration decreasing cell viability by 50%)
# [9] = tested on: HIV-1RoJo/PBMC; assay: Anti-HIV efficacy in fresh human PBMCs, strain RoJo; format: cell-based; details: HIV-1RoJo/PBMC
# Procedure: Fresh PBMCs, seronegative for HIV and HBV, were isolated from screened donors (Interstate Blood Bank, Inc. Memphis, Tenn.). Cells were pelleted/washed 2-3 times by low speed centrifugation and re-suspension in PBS to remove contaminating platelets. […] Banded PBMCs were gently aspirated from the resulting interface and subsequently washed with PBS by low speed centrifugation. […] The cells were allowed to incubate at 37° C. […] IL-2 is included in the culture medium to maintain the cell division initiated by the PHA mitogenic stimulation. PBMCs were maintained in this with bi-weekly medium changes until used in the assay protocol. Cells were kept in culture for a maximum of two weeks before being deemed too old for use in assays and discarded. Monocytes were depleted from the culture as the result of adherence to the tissue culture flask.
# Tritiated thymidine triphosphate (^3H-TTP, 80 Ci/mmol, NEN) was received in 1:1 dH2O:Ethanol at 1 mCi/mL. Poly rA:oligo dT template:primer (Pharmacia) was prepared as a stock solution, followed by aliquoting and storage at −20° C. The RT reaction buffer was prepared fresh on a daily basis. The final reaction mixture was prepared by combining ^3H-TTP, dH2O, poly rA:oligo dT stock and reaction buffer. This reaction mixture was placed in a round bottom microtiter plate and supernatant containing virus was added and mixed. The plate was incubated at 37° C. for 60 minutes. Following incubation, the reaction volume was spotted onto DE81 filter-mats (Wallac), in a sodium phosphate buffer or 2×SSC (Life Technologies). Next they were washed in distilled water, in 70% ethanol, and then dried. Incorporated radioactivity (counts per minute, CPM) was quantified using standard liquid scintillation techniques.
# [10] = Table 3, read-out: Average IC50 CDK7 cyclin H
# [11] = Table 3, read-out: Average IC50 CDK2 cyclin E1
# [12] = Table 3, read-out: Average IC50 CDK4 cyclin D1
# [13] = Table 3, read-out: Average IC50 CDK2 cyclin A2
# [14] = Table 3, read-out: Average IC50 CDK9 cyclin T1
# [15] = Table 4, read-out: Kinase Inhibition IC50 CDK7-cyclin H
# [16] = Table 4, read-out: Kinase Inhibition IC50 CDK2-cyclin E
# [17] = Table 4, read-out: Kinase Inhibition IC50 CDK4-cyclin D1
# [18] = Table 4, read-out: Kinase Inhibition IC50 CDK2-cyclin A
# [19] = Table 4, read-out: Kinase Inhibition IC50 CDK9-cyclin T1
# Sequence of CDK7/cyclin H (P50613 whole entry): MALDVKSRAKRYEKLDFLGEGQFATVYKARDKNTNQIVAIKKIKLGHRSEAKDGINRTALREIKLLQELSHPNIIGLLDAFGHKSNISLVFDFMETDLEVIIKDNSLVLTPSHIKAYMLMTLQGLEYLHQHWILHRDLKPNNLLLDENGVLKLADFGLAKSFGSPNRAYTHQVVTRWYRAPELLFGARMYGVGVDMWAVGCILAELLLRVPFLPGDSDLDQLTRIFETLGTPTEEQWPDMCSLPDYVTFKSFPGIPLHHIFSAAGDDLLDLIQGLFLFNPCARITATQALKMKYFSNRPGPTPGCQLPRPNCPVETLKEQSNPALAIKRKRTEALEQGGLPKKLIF
# Sequence of CDK7/cyclin H (P51946 whole entry partner): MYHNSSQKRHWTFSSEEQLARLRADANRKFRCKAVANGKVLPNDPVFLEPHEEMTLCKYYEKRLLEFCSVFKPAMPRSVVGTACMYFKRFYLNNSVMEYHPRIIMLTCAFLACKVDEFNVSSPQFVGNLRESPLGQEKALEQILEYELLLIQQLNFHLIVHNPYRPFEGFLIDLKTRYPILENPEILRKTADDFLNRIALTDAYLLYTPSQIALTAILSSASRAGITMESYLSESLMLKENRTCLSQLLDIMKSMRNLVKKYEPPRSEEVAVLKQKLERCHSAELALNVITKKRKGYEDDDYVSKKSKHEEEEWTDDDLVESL
"IC50 [1, 10] [nM]","IC50 [2, 11] [nM]","IC50 [3, 12] [nM]","IC50 [4, 13] [nM]","IC50 [5, 14] [nM]",IC50 [6] [nM],"IC50 [2, 16] [nM]","IC50 [4, 18] [nM]",SMILES,also measured
> 100000,22000,> 100000,> 100000,85000,> 100000,–,–,"Cc1nc(C)c(-c2ccnc(Nc3cccc(C(F)(F)F)c3)n2)s1 [Compound 13, [4-(2,4-Dimethyl-thiazol-5-yl)-pyrimidin-2-yl]-(3-trifluoromethyl-phenyl)-amine]",–
5200,530,1700,530,410,1500,–,–,"Cc1nc(C)c(-c2ccnc(Nc3cccc(N)c3)n2)s1 [Compound 34, N-[4-(2,4-Dimethyl-thiazol-5-yl)-pyrimidin-2-yl]-benzene-1,3-diamine]",–
19000,770,> 100000,> 100000,8300,> 100000,–,–,"CNc1nc(C)c(-c2ccnc(Nc3cccc(C(F)(F)F)c3)n2)s1 [Compound 75, [4-(4-Methyl-2-methylamino-thiazol-5-yl)-pyrimidin-2-yl]-(3-trifluoromethyl-phenyl)-amine]",–
2800,390,820,420,800,1800,–,–,"Cc1nc(N)sc1-c1ccnc(Nc2ccc(CCO)cc2)n1 [Compound 118, 2-{4-[4-(2-Amino-4-methyl-thiazol-5-yl)-pyrimidin-2-ylamino]-phenyl}-ethanol]",–
4900,1100,4100,670,–,470,–,–,"COc1ccc(Nc2nccc(-c3sc(C)nc3C)n2)cc1N(C)C [Compound 130, N^1-[4-(2,4-Dimethyl-thiazol-5-yl)-pyrimidin-2-yl]-4-methoxy-N^3,N^3-dimethyl-benzene-1,3-diamine]",–
390,88,4700,4200,210,> 100000,–,–,"CCNc1nc(C)c(-c2ccnc(Nc3cccc([N+](=O)[O-])c3)n2)s1 [Compound 133, [4-(2-Ethylamino-4-methyl-thiazol-5-yl)-pyrimidin-2-yl]-(3-nitro-phenyl)-amine]",–
> 100000,480,105000,1800,7100,49000,–,–,"Cc1nc(N(C)C)sc1-c1ccnc(Nc2cccc([N+](=O)[O-])c2)n1 [Compound 140, [4-(2-Dimethylamino-4-methyl-thiazol-5-yl)-pyrimidin-2-yl]-(3-nitro-phenyl)-amine]",–
11000,28,3800,1,–,48,–,–,"Cc1nc(C)c(-c2ccnc(Nc3ccc(S(=O)(=O)O)cc3)n2)s1 [Compound 148, 4-[4-(2,4-Dimethyl-thiazol-5-yl)-pyrimidin-2-ylamino]-benzenesulfonic acid]",–
990,250,500,520,59,710,–,–,"Cc1nc(N)sc1-c1ccnc(Nc2cccc(N)c2)n1 [Compound 149, N-[4-(2-Amino-4-methyl-thiazol-5-yl)-pyrimidin-2-yl]-benzene-1,3-diamine]",–
11000,160,4900,410,–,1500,–,–,"Cc1nc(C)c(-c2ccnc(Nc3ccccc3)n2)s1 [Compound 150, [4-(2,4-Dimethyl-thiazol-5-yl)-pyrimidin-2-yl]-phenyl-amine]",–
–,–,–,–,–,3000,610,16,"Cc1c(-c2ccnc(Nc3cccc([N+](=O)[O-])c3)n2)sc(=O)n1C [Compound 153, 3,4-Dimethyl-5-[2-(3-nitro-phenylamino)-pyrimidin-4-yl]-3H-thiazol-2-one]","IC50 [1, 15]: 120 nM; IC50 [3, 17]: 560 nM; IC50 [5, 19]: 2.2 nM"
–,–,–,–,–,1400,–,270,"Cc1c(-c2ccnc(Nc3ccc(Cl)cc3)n2)sc(=O)n1C [Compound 156, 5-[2-(4-Chloro-phenylamino)-pyrimidin-4-yl]-3,4-dimethyl-3H-thiazol-2-one]","IC50 [1, 15]: 8700 nM"
–,–,–,–,–,370,93,86,"Cc1c(-c2ccnc(Nc3cccc(O)c3)n2)sc(=O)n1C [Compound 158, 5-[2-(3-Hydroxy-phenylamino)-pyrimidin-4-yl]-3,4-dimethyl-3H-thiazol-2-one]","IC50 [1, 15]: 1300 nM; IC50 [3, 17]: 1000 nM"
–,–,–,–,–,820,78,260,"Cc1c(-c2ccnc(Nc3ccc(F)c([N+](=O)[O-])c3)n2)sc(=O)n1C [Compound 159, 5-[2-(4-Fluoro-3-nitro-phenylamino)-pyrimidin-4-yl]-3,4-dimethyl-3H-thiazol-2-one]","IC50 [1, 15]: 1100 nM"
–,–,–,–,–,1800,1700,1200,"Cc1cc(Nc2nccc(-c3sc(=O)n(C)c3C)n2)ccc1Cl [Compound 160, 5-[2-(4-Chloro-3-methyl-phenylamino)-pyrimidin-4-yl]-3,4-dimethyl-3H-thiazol-2-one]","IC50 [3, 17]: 18000 nM; IC50 [5, 19]: 150 nM"
–,–,–,–,–,2100,3200,710,"Cc1ccc(Nc2nccc(-c3sc(=O)n(C)c3C)n2)cc1I [Compound 161, 5-[2-(3-Iodo-4-methyl-phenylamino)-pyrimidin-4-yl]-3,4-dimethyl-3H-thiazol-2-one]","IC50 [3, 17]: 4000 nM; IC50 [5, 19]: 110 nM"
–,–,–,–,–,96,36000,84,"Cc1ccc(Nc2nccc(-c3sc(=O)n(C)c3C)n2)cc1[N+](=O)[O-] [Compound 163, 3,4-Dimethyl-5-[2-(4-methyl-3-nitro-phenylamino)-pyrimidin-4-yl]-3H-thiazol-2-one]","IC50 [1, 15]: 1.2 nM; IC50 [3, 17]: 110 nM; IC50 [5, 19]: 14 nM"

SMILES,"IC50 [1, 10] [nM]","IC50 [2, 11] [nM]","IC50 [3, 12] [nM]","IC50 [4, 13] [nM]","IC50 [5, 14] [nM]",IC50 [6] [nM],"IC50 [2, 16] [nM]","IC50 [4, 18] [nM]",also measured
"CNc1nc(C)c(-c2ccnc(Nc3ccc(F)cc3)n2)s1 [Compound 47, (4-Fluoro-phenyl)-[4-(4-methyl-2-methylamino-thiazol-5-yl)-pyrimidin-2-yl]-amine]",–,37,–,–,82,–,–,–,"anti-viral effectiveness as demonstrated by cell-based assays [7]: particularly effective anti-viral agents; CC50 at 7 days ([8]; HIV-1RoJo/PBMC): 6800 nM; TI (therapeutic index: TC50/IC50) [9]: 34; IC50 ([9]; Human immunodeficiency virus 1, read-out: IC50 (concentration inhibiting virus replication by 50%)): 200 nM; IC90 ([9]; Human immunodeficiency virus 1, read-out: IC90 (concentration inhibiting virus replication by 90%)): 1200 nM"
"Cc1nc(C)c(-c2ccnc(Nc3ccc(N(C)C)cc3)n2)s1 [Compound 103, N,N-Dimethyl-N′-[4-(2,4-dimethyl-thiazol-5-yl)-pyrimidin-2-yl]-benzene-1,4-diamine]",11000,–,–,–,1800,7300,–,–,anti-viral effectiveness as demonstrated by cell-based assays [7]: particularly effective anti-viral agents; CC50 at 7 days ([8]; HIV-1RoJo/PBMC): > 100000 nM; CC50 at 7 days ([8]; HIV-1WeJo/PBMC): 800 nM
